Source: publication PMC11695783 (Frontiers in Pharmacology, 2024)
Values after ≈ are worked out from the molar mass of the structure shown. Values joined by “and” are separate entries in the source; they are usually repeats but may differ in a detail not shown here. Equal entries are not always repeated.

Key:
[1] = tested on: TNF-α; assay: TNF-α in BALF of M. pneumoniae-infected mice (ELISA); format: in vivo, BALB/c mice; conditions: for TNF-α in BALF (AV): group AV; for TNF-α in BALF: individual mice
Method: (§1) Adult BALB/c mice (20–22 g) were divided into a control group, a positive group, and compound 16C groups at low (20 mg/kg), medium (40 mg/kg), and high-dose (80 mg/kg) levels and oral and intramuscular tiamulin treatment groups (40 mg/kg). We formulated the above dose range based on the dose at which tiamulin was approved for injection (10–20 mg/kg) and the dose previously reported (45 mg/kg) ([EMA, 1999]; [Xiao et al., 2016]). In summary, we selected similar doses for compound 16C in vivo study. 40 mg/kg was used as an intermediate value, one-half of it as a low dose, and two times of it as a high dose. To prepare the challenge solution, logarithmic phase culture suspensions were centrifuged at 1700 g for 10 min, and the pellets were suspended in sterile PBS to obtain 1 × 10^9 CFU/mL. Before the challenge, mice were anesthetized with tribromoethanol (250 mg/kg, IP). Mice in the control groups were intratracheally inoculated with sterile PBS, whereas mice in the other groups were intratracheally challenged with 50 μL (1 × 10^9 CFU/mL) M. pneumoniae suspension once a day for 3 days. Compound 16C and tiamulin (tiamulin-IM group) dissolved using the method mentioned in pharmacokinetic studies, and the tiamulin fumarate soluble powder was dissolved in ddH2O for oral administration. After the final challenge, antibiotics were administered at low, medium, and high-dose levels (see above) at 10 a.m. and 10 p.m. daily for 4 consecutive days. Normal saline containing 5% DMSO and 5% Tween-80 was administered as control and positive groups by thigh intramuscular injection. To compare the efficacy of compound 16C and tiamulin under the same route of administration, we used the original tiamulin for intramuscular administration in the same formulation. On the other hand, tiamulin fumarate soluble powder, approved for oral administration to treat animal mycoplasma diseases in China, was administered to mice by gavage. Based on a clinical study of lefamulin in community-acquired bacterial pneumonia (CABP), subjects were administered twice a day and the 96 ± 24 h of starting treatment was an essential point for early clinical response (ECR) ([Paukner et al., 2022]). We therefore stopped treatment at 96 h and sampled at 192 h to explore whether the disease worsened after cessation of treatment. Bronchoalveolar lavage fluid (BALF) and lungs were collected at 0, 96, 192 h (Samples of 0 h were collected before starting treatment, and mice were fed ad libitum without drug treatment during 96–192 h) after the first dose, BALF for cytokine and cytological analysis and lung for histopathological evaluation.
(§2) Bronchoalveolar lavage was performed according to a standardized method ([Van Hoecke et al., 2017]). BALF was obtained following infusion of 0.5 mL PBS via tracheal cannulation into the lung twice (total 1 mL), and 200 µL was used for mycoplasma counts. The remaining BALF was centrifuged at 300 g for 10 min to separate the debris. The supernatants were stored at −80°C, and the debris was resuspended in the same volume of PBS containing red blood cell lysis buffer. A hemocytometer was used to count total cell numbers in BALF, and cell smears (Diff-Quik staining) were prepared to calculate the percentages of neutrophils, macrophages, and lymphocytes. IFN-γ, TNF-α, and CXCL1 levels in BALF samples were assessed using commercial ELISA kits using guidelines recommended by the manufacturer (Elabscience, Wuhan, China). Parallel data for each experimental group at each time point were obtained from six different mice.

[2] = tested on: inflammatory cells in BALF (neutrophils, macrophages, lymphocytes); assay: Inflammatory cell analysis in BALF of M. pneumoniae-infected mice; format: in vivo, BALB/c mice; conditions: for cell counts, total (AV) / cell counts, 中 (neutrophils) (AV) / cell counts, 巨 (macrophages) (AV) / cell counts, 淋 (lymphocytes) (AV): Tiamulin(40mg/kg) group; for total number of inflammatory cells in BALF compared with the positive controls: 96 h
Method: as §1, §2

[3] = tested on: Mycoplasma pneumoniae strain M129 (ATCC 29342); assay: Susceptibility assay (broth microdilution MIC, MBC); format: cell-based
Method: Mycoplasma pneumoniae strain M129 (ATCC 29342) was obtained from American Type Culture Collection (Manassas, VA, United States) and cultured at 37°C in the presence of 5% CO2 in the modified SP-4 liquid medium (pH 7.4) containing 2.1% (w/v) CM1166 mycoplasma broth base medium (Oxoid, Hants, United Kingdom), 20% (v/v) fetal bovine serum (FBS, Bioexplorer, CO, United States), 0.4% yeast extract (Oxoid), 0.55% (w/v) CMRL 1066 w/L-glutamine culture media powder (MyBioSource, San Diego, CA, United States), 1% D-glucose (Macklin) and 0.004% phenol red (Macklin). […] The solid medium is based on the above formula with the addition of 1% agar, and the characteristic fried egg-like colonies were used for experiments following incubation for 7 d on plates.
The broth microdilution MIC procedure was performed according to standardized methods for microdilution susceptibility testing of mycoplasma species ([Waites et al., 2012]). […] The concentration of organisms should be determined to approximately 10^6 CFU/mL prior to inoculation into 96-well plates. Due to the action of phenol red, the acidic metabolites of microbial growth can turn the medium yellow. […] The MBC assays were performed based on MICs following endpoint reading and the liquid in the high-concentration wells was removed for bacterial counting.

[4] = tested on: Mycoplasma pneumoniae; assay: In vivo pharmacodynamic study: Mycoplasma pneumoniae loads in BALF of infected mice; design: species or system BALB/c mice; conditions: for microbial reduction in BALF: 96 h; for MPcounts in BALF (AV) / MPcounts in BALF: tiamulin 40 mg/kg IM; for MPcounts in BALF (AV): group AV; for MPcounts in BALF: individual mice, listed as TiamulinIM
Method: as §1, §2

[5] = tiamulin 40 mg/kg IM, 96 h, listed as Tiamulin-IM

`C=C[C@]1(C)C[C@@H](OC(=O)CSCCN(CC)CC)[C@]2(C)[C@H](C)CC[C@]3(CCC(=O)[C@H]32)[C@@H](C)[C@@H]1O` [tiamulin, Tiamulin, reference compound] was tested, and the “TNF-α in BALF (AV)” value [1, 5] was 25.628 pg/mL, the “TNF-α in BALF (AV)” value ([1]; tiamulin 40 mg/kg IM, 96 h, listed as TiamulinIM) was 25.4267 pg/mL and the “TNF-α in BALF” value [1, 5] was 36.6513 pg/mL and 20.2192 pg/mL and 19.4095 pg/mL and 27.905 pg/mL and 23.325 pg/mL and 26.258 pg/mL. For the same compound, the “TNF-α in BALF (AV)” value ([1]; tiamulin 40 mg/kg IM, 192 h) was 10.6403 pg/mL, the “TNF-α in BALF” value ([1]; tiamulin 40 mg/kg IM, 192 h, listed as Tiamulin-IM) was 0.9088 pg/mL and 8.569 pg/mL and 21.5375 pg/mL and 21.2768 pg/mL and the “TNF-α in BALF (AV)” value ([1]; tiamulin 40 mg/kg PO (fumarate soluble powder), 96 h) was 17.9906 pg/mL. The “TNF-α in BALF (AV)” value ([1]; tiamulin 40 mg/kg PO (fumarate soluble powder), 192 h) was 9.318 pg/mL, the “cell counts, total (AV)” value ([2]; time 0) was 30.4125 n*10^5 and the “cell counts, 中 (neutrophils) (AV)” value ([2]; time 0) was 26.5281 n*10^5. The “cell counts, 巨 (macrophages) (AV)” value ([2]; time 0) was 3.545 n*10^5, the “cell counts, 淋 (lymphocytes) (AV)” value ([2]; time 0) was 0.3394 n*10^5 and the “cell counts, total (AV)” value ([2]; time 96) was 9.854 n*10^5. For the same compound, the “cell counts, 中 (neutrophils) (AV)” value ([2]; time 96) was 1.672 n*10^5, the “cell counts, 巨 (macrophages) (AV)” value ([2]; time 96) was 3.529 n*10^5 and the “cell counts, 淋 (lymphocytes) (AV)” value ([2]; time 96) was 4.653 n*10^5. The “cell counts, total (AV)” value ([2]; time 192) was 10.35 n*10^5, the “cell counts, 中 (neutrophils) (AV)” value ([2]; time 192) was 0.1129 n*10^5 and the “cell counts, 巨 (macrophages) (AV)” value ([2]; time 192) was 3.034 n*10^5. The “cell counts, 淋 (lymphocytes) (AV)” value ([2]; time 192) was 7.204 n*10^5, the “total number of inflammatory cells in BALF compared with the positive controls” value ([2]; tiamulin intramuscular 40 mg/kg) was “significantly lower” and the “number of cells in BALF four days following treatment cessation” value ([2]; tiamulin intramuscular 40 mg/kg, 192 h, similar to control group (P> 0.05)) was “lower than that of the positive control”. For the same compound, the “total number of inflammatory cells in BALF compared with the positive controls” value ([2]; tiamulin orally administered 40 mg/kg) was “not statistically significant”, the MIC ([3]; M. pneumoniae strain M129, ≈96 h, read-out: MIC) was 0.00781 µg/mL (≈ 0.0158 µM) and the MBC ([3]; M. pneumoniae strain M129, read-out: MBC) was 0.0625 µg/mL (≈ 0.127 µM). The “microbial reduction in BALF” value ([4]; tiamulin 40 mg/kg IM twice daily 4 d) was 2.26 log10 CFU/mL, the “MPcounts in BALF (AV)” value ([4]; 96h) was 3.805 Log10CFU/mL and the “MPcounts in BALF” value ([4]; 96h) was 3.506 Log10CFU/mL and 3.899 Log10CFU/mL and 3.382 Log10CFU/mL and 5.052 Log10CFU/mL and 3.608 Log10CFU/mL and 3.384 Log10CFU/mL. The “MPcounts in BALF (AV)” value ([4]; 192 h) was 3.657 Log10CFU/mL, the “MPcounts in BALF” value ([4]; 192h) was 3.57 Log10CFU/mL (2×) and 3.868 Log10CFU/mL and 3.692 Log10CFU/mL and 3.619 Log10CFU/mL and 3.625 Log10CFU/mL and the “microbial reduction in BALF” value ([4]; tiamulin 40 mg/kg PO (tiamulin fumarate soluble powder) twice daily 4 d) was 1.17 log10 CFU/mL.
